Measurements reported in ChEMBL document CHEMBL5634192, “Transforming Therapeutic Approaches with PROTAC Technology: New Targets and Potentials” (ACS Med Chem Lett, 2024).

What was measured:
[1] = molecular target: T1, von Hippel-Lindau disease tumor suppressor/Interleukin-1 receptor-associated kinase 4 (Homo sapiens, UniProt Q9NWZ3+P40337); experiment: PROTAC activity at VHL E3 ligase/IRAK4 in human PBMC cells assessed as induction of degradation of IRAK4 incubated overnight by ELISA method; format: cell-based
[2] = molecular target: T1, von Hippel-Lindau disease tumor suppressor/Interleukin-1 receptor-associated kinase 4; experiment: PROTAC activity at VHL E3 ligase/IRAK4 in human PBMC cells assessed as induction of degradation of IRAK4 incubated overnight by ELISA method relative to control; format: cell-based
Target sequence in this assay (P40337 whole entry, looked up): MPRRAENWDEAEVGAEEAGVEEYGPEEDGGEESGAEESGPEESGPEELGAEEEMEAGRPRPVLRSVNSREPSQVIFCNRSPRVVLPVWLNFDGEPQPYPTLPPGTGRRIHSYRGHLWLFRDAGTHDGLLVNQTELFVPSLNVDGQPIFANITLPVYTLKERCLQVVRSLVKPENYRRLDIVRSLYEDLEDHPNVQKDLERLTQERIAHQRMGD
Target sequence in this assay (Q9NWZ3 whole entry, looked up): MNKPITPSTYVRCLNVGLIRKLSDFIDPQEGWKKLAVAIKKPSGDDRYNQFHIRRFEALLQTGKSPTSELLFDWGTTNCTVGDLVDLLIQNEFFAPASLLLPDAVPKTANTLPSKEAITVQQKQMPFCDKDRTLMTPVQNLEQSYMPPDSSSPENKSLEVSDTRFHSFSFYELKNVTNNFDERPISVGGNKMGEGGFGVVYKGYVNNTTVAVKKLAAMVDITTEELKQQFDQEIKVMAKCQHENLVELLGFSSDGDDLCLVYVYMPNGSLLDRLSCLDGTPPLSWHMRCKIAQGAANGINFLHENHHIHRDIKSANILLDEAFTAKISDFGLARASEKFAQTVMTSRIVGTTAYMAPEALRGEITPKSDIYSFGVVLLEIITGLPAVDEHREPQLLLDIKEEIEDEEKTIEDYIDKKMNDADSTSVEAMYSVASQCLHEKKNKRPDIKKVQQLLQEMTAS

## O=C1CCC(c2ccc(N3CCC4(CCC(CN5CCC(n6cc7cc(NC(=O)c8cnn9cccnc89)c(OCC8CC8)cc7n6)CC5)CC4)CC3)cc2F)C(=O)N1 (centres undefined)
[1]
  DC50: < 1 nM
  EC90: < 10 nM
[2]
  Emax: > 90%

## CC(C)Oc1cc2c(cc1NC(=O)c1cnn3cccnc13)CN(C1CCN(CC3CCN(c4ccc(C5CCC(=O)NC5=O)c(F)c4)CC3)CC1)C2=O (centres undefined)
[1]
  DC50: < 1 nM
  EC90: < 10 nM
[2]
  Emax: > 90%

## CC(C)Oc1cc2c(cc1NC(=O)c1cnn3cccnc13)CN(C1CCN(CC3CCN(c4ccc(C5CCC(=O)NC5=O)cc4)CC3)CC1)C2=O (centres undefined)
[1]
  DC50: 1 nM
  EC90: < 10 nM
[2]
  Emax: > 90%

## CC(C)Oc1nc2c(cc1NC(=O)c1cnn3cccnc13)CN(C1CCN(CC3CCN(c4ccc(C5CCC(=O)NC5=O)c(F)c4)CC3)CC1)C2=O (centres undefined)
[1]
  DC50: < 1 nM
  EC90: < 10 nM
[2]
  Emax: > 90%

## CC(C)Oc1cc2c(cc1NC(=O)c1cnn3cccnc13)CN(C1CCN(CC3CCN(c4ccc(C5CCC(=O)NC5=O)cn4)CC3)CC1)C2=O (centres undefined)
[1]
  DC50: < 1 nM
  EC90: < 10 nM
[2]
  Emax: > 90%

## O=C1CCC(c2ccc(N3CCC4(CC3)CC(CN3CCC(n5cc6cc(NC(=O)c7cnn8cccnc78)c(OCC7CC7)cc6n5)CC3)C4)cc2F)C(=O)N1 (centres undefined)
[1]
  DC50: 1 nM
  EC90: < 10 nM
[2]
  Emax: > 90%

## O=C1CCC(c2ccc(N3CC(F)(CN4CCC(n5cc6cc(NC(=O)c7cnn8cccnc78)c(OCC7CC7)cc6n5)CC4)C3)cc2F)C(=O)N1 (centres undefined)
[1]
  DC50: < 1 nM
  EC90: < 10 nM
[2]
  Emax: > 90%

## O=C1CCC(c2ccc(N3CC(F)(CN4CCC(n5cc6cc(NC(=O)c7cnn8cccnc78)c(N7CCC(N8CCC8)CC7)cc6n5)CC4)C3)cc2F)C(=O)N1 (centres undefined)
[1]
  DC50: < 1 nM
  EC90: < 10 nM
[2]
  Emax: > 90%
